Test results as given in US8722849B2, “Polypeptides” (Novo Nordisk A/S, priority 2011, dated 2014).
≈ marks a conversion by molar mass, not a printed value. Where two headings read alike, the source gives them in different places. Starred links: 1 amine or outer side, 2 acyl side, 3 side chain; linkers in the order of their positions; H or OH if unused. Positions of bridges follow the written chain, without caps; N, C: chain ends. Residues, ends and D or L forms follow the SMILES beside them. Groups on a side chain read outwards from the residue. *: point of attachment. C20 diacid = O=C(O)CCCCCCCCCCCCCCCCCCC(=O)*; γGlu = O=C(O)[C@H](CCC(=O)[*:2])N[*:1]; AEEA = NCCOCCOCC(=O)O

Test: Assay (IV) determination of solubility
Format: physicochemical
Outline: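 Stock ~500 nmol/ml in water; 1:1 with 100 mM buffer, pH 3.0–8.0 (glycylglycine ≤5.0, bistrispropane ≥6.0); 18 h RT; spin; HPLC quantitation of soluble polypeptide.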

[1] = pH 3, pH 3.0, read-out: Solubility pH 3.0
[2] = pH 4, pH 4.0, 18 hours at room temperature, Table 2, read-out: Solubility pH 4.0
[3] = pH 4, pH 4.0, read-out: Solubility pH 4.0
[4] = pH 5, pH 5.0, read-out: Solubility pH 5.0
[5] = pH 6, pH 6.0, read-out: Solubility pH 6.0
[6] = pH 6.5, pH 6.5, read-out: Solubility pH 6.5
[7] = pH 7, pH 7.0, read-out: Solubility pH 7.0
[8] = pH 7.5, pH 7.5, read-out: Solubility pH 7.5

Row | solubility [1] [µM] | solubility [2] [µM] | solubility [3] [µM] | solubility [4] [µM] | solubility [5] [µM] | solubility [6] [µM] | solubility [7] [µM] | solubility [8] [µM] | solubility (pH 8, pH 8.0, read-out: Solubility pH 8.0) [µM] | Structure (SMILES)
1 | > 200 | > 200 | > 200 | 107 (≈ 509 µg/mL) | 1 (≈ 4.75 µg/mL) | 1 (≈ 4.75 µg/mL) | 1 (≈ 4.75 µg/mL) | 1 (≈ 4.75 µg/mL) |  | CC[C@H](C)[C@H](NC(=O)[C@H](CCCCNC(=O)COCCOCCNC(=O)COCCOCCNC(=O)CC[C@H](NC(=O)CCCCCCCCCCCCCCCCCCC(=O)O)C(=O)O)NC(=O)CNC(=O)[C@H](Cc1ccccc1)NC(=O)[C@H](CC(N)=O)NC(=O)[C@H](CO)NC(=O)[C@H](CO)NC(=O)[C@H](CO)NC(=O)[C@H](Cc1c[nH]cn1)NC(=O)[C@H](Cc1c[nH]cn1)NC(=O)[C@H](CC(C)C)NC(=O)[C@H](Cc1ccccc1)NC(=O)[C@H](CCC(=O)O)NC(=O)[C@H](C)NC(=O)[C@H](CC(C)C)NC(=O)[C@H](CCCNC(=N)N)NC(=O)[C@H](CCC(N)=O)NC(=O)[C@@H](NC(=O)[C@H](C)NC(=O)[C@@H]1CSSC[C@H](NC(=O)[C@@H](N)CCCCN)C(=O)N[C@@H](CC(N)=O)C(=O)N[C@@H]([C@@H](C)O)C(=O)N[C@@H](C)C(=O)N[C@@H]([C@@H](C)O)C(=O)N1)[C@@H](C)O)C(=O)N[C@@H](CC(C)C)C(=O)N[C@@H](CO)C(=O)N[C@@H](CO)C(=O)N[C@H](C(=O)N[C@@H](CC(N)=O)C(=O)N[C@H](C(=O)NCC(=O)N[C@@H](CO)C(=O)N[C@@H](Cc1c[nH]cn1)C(=O)N[C@H](C(=O)N[C@@H](Cc1ccc(O)cc1)C(N)=O)[C@@H](C)O)C(C)C)[C@@H](C)O [Example 133, N-epsilon25-[2-(2-{2-[2-(2-{2-[(S)-4-Carboxy-4-(19-carboxyheptadecanoylamino)butyrylamino]ethoxy}ethoxy)acetylamino]ethoxy}ethoxy)acetyl]-[Glu14,His17,Ser21,Lys25,Ser28,Ser29.His35]-pramlintide] (H-KCNTATCATQRLAEFLHHSSSNFGK([AEEA-AEEA-γGlu-C20 diacid])ILSSTNVGSHTY-NH2; disulfide 2-7)
2 | > 200 | > 200 | > 200 | > 200 | 32 (≈ 152 µg/mL) | 3 (≈ 14.3 µg/mL) | 13 (≈ 61.8 µg/mL) | 114 (≈ 542 µg/mL) | > 200 | CC[C@H](C)[C@H](NC(=O)[C@@H]1CCCN1C(=O)CNC(=O)[C@H](Cc1ccccc1)NC(=O)[C@H](CC(N)=O)NC(=O)[C@H](CO)NC(=O)[C@H](CO)NC(=O)[C@H](CO)NC(=O)[C@H](Cc1c[nH]cn1)NC(=O)[C@H](Cc1c[nH]cn1)NC(=O)[C@H](CC(C)C)NC(=O)[C@H](Cc1ccccc1)NC(=O)[C@H](CCC(=O)O)NC(=O)[C@H](C)NC(=O)[C@H](CC(C)C)NC(=O)[C@H](CCCNC(=N)N)NC(=O)[C@H](CCC(N)=O)NC(=O)[C@@H](NC(=O)[C@H](C)NC(=O)[C@@H]1CSSC[C@H](NC(=O)[C@H](Cc2c[nH]cn2)NC(=O)COCCOCCNC(=O)COCCOCCNC(=O)CC[C@H](NC(=O)CCCCCCCCCCCCCCCCCCC(=O)O)C(=O)O)C(=O)N[C@@H](CC(N)=O)C(=O)N[C@@H]([C@@H](C)O)C(=O)N[C@@H](C)C(=O)N[C@@H]([C@@H](C)O)C(=O)N1)[C@@H](C)O)C(=O)N[C@@H](CC(C)C)C(=O)N1CCC[C@H]1C(=O)N1CCC[C@H]1C(=O)N[C@H](C(=O)N[C@@H](CC(N)=O)C(=O)N[C@H](C(=O)NCC(=O)N[C@@H](CO)C(=O)N[C@@H](Cc1c[nH]cn1)C(=O)N[C@H](C(=O)N[C@@H](Cc1ccc(O)cc1)C(N)=O)[C@@H](C)O)C(C)C)[C@@H](C)O [Example 119, N-alpha-[2-(2-{2-[2-(2-{2-[(S)-4-Carboxy-4-(19-carboxyheptadecanoylamino)butyrylamino]ethoxy}ethoxy)acetylamino]ethoxy}ethoxy)acetyl]-[His1,Glu14,His17,Ser21,His35]-pramlintide] ({C20 diacid-γGlu-AEEA-AEEA}-HCNTATCATQRLAEFLHHSSSNFGPILPPTNVGSHTY-NH2; disulfide 2-7)
